{
  "source": "patent US5972901A",
  "about": "“Serpin enzyme complex receptor--mediated gene transfer” (Case Western Reserve University, priority 1996, dated 1999)",
  "key": {"SEC receptor [1]": {"system": "SEC receptor", "assay": "Binding of fluorescein labeled peptide to hepatoma cells (fluorescent cells)", "type": "cell-based, human", "protocol": "HuH7, HepG2 (high) and HepG2 (low) cells were plated in six well plates and transfected as described above. Fluorescein labeling was carried out with fluorescein isothiocyanate, as described previously [Mann and Fish (1972) Methods of Enzymology 26:28-42]. Briefly, the C1315 peptide (145 μg) was incubated with 1 mg of fluorescein isothiocyanate for 1 hr at room temperature. Following incubation, 10 mg/ml glycine was added to destroy excess reagent, the pH was adjusted to 6.0 by the addition of 1N HCl and the labeled peptide was then purified on a Sephadex G10 column (Bio-Rad).\nTwo days following transfection, cells were washed with Ca^2+ /Mg^2+ PBS, incubated with 100 nM fluorescein labeled C1315 peptide and diluted in binding buffer (DMEM containing 50 mM Hepes, 0.1 mg/ml cytochrome c, 0.01% Tween 80, 2 mg/ml bovine serum albumin) at 4° C. Individual cells were imaged on a Zeiss axiovert 35 microscope at an excitation wavelength of 493.5 nm and a measurement wavelength of 530 nm. Digital images were captured by a cooled CCD camera model CH250 for 25 seconds (Photometrics, Ltd., Tucson, Ariz.) and quantified by a Nu 2000 camera controller board (Photometrics) with a Macintosh Quadra 900 configuration. Data was processed with Oncor image software (Oncor Imaging, Rockville, Md.).\nBoth HuH7 and HepG2 cell lines were transfected with the pCMV lac Z II plasmid coding for the β-galactosidase protein as a complex with the C1315 peptide carrier or using Lipofectin®, as described above; three days after transfection, the cells were harvested and β-galactosidaseactivity was determined. Cells staining blue represent cells expressing β-galactosidase; fluorescent cells represent cells which bound the fluoresceinated C105Y peptide. Cells which were counted as blue or fluorescent were intensely stained. The average % values represent the number of cells which were blue or fluorescent per 100 randomly selected cells. The results represent 6 independent experiments conducted. […]"}, "hepatoma cells": {"system": "hepatoma cells", "assay": "Cell death / viability during transfection of hepatoma cells", "conditions": "10 fold molar excess", "experimental": "After addition of the complex and/or Lipofectin®, all cells were incubated at 37° C. for six hours. Cells were then rinsed with Ca^2+ /Mg^2+ PBS and fresh growth media added and incubated at 37° C. (with a change of media every 2 days) until the appropriate functional assay was performed. Competition experiments were conducted by transfecting HepG2 (high) cells with 1.11 pmol C1 315 carrier condensed DNA in the presence and absence of a 10 fold excess free C1315 peptide. All transfections were done in duplicate."}, "SEC receptor [2]": {"system": "SEC receptor", "assay": "125I-C105Y cell surface SEC receptor binding, Scatchard analysis", "set-up": "species or system human", "conditions": "for Kd: 4° C.", "protocol": "Peptide C105Y was radio-iodinated by a modification of the chloramine T method [Hunter and Greenwood (1962) Nature 194:49] as follows. Briefly, approximately 50 μg of the C105Y peptide in 20 μl PBS was mixed with 20 μl chloramine T (120 mg/10 ml) and 1 mCi ^125 I (DuPont-New England Nuclear, Boston, Mass.). The reaction mixture was incubated for 30 seconds at room temperature and then 50 μl of sodium metabisulfite (36 mg/10 ml) was added. The labeled C105Y peptide was purified on a Sephadex G10 column (Bio-Rad) which had been blocked by application of 3 mg/ml BSA in PBS prior to the addition of the iodinated peptide. The specific radioactivity of ^125 I peptide C105Y ranged between 3,500 and 11,700 dpm/ng.\nHuH7 cells and two populations of HepG2 cells were studied. Cells were plated in 24 well tissue culture plates, allowed to become confluent, then thoroughly washed with phosphate-buffered saline containing 1 mM CaCl2 and 2.5 mM MgCl2 (Ca^2+ /Mg^2+ PBS) and incubated at 4° C. for 2 h with ^125 I-labeled ligand (e.g., C105Y) at concentrations of 12.5 to 400 nM in the absence or presence of 200 fold excess unlabeled ligand and diluted in binding medium (DMEM containing 50 mM HEPES, 0.1 mg/ml cytochrome c, 0.01% Tween 80, 2 mg/ml bovine serum albumin). The cells were then rinsed in Ca^2+ Mg^2+ PBS, homogenized in 1 N NaOH, and cell-associated radioactivity determined. Non-specific binding was determined by incubating cells with a 200 fold molar excess of cold ligand. Specific binding was defined as the difference between total and non-specific binding. Binding parameters were determined by Scatchard analysis. Binding assays were performed on all three cell lines [HuH7, HepG2 (high), and HepG2 (low)] simultaneously with the same batch of iodinated C105Y peptide so that the proper comparisons could be made.\nIn FIG. 22, the specific binding (expressed as cpm/one million cells) is plotted against the concentration of iodinated C105Y ppeptide (nM). Traces are shown for the specific binding of ^125 I-C105Y to HuH7 cells (.smallcircle.), HepG2 (high) cells (.quadrature.) and HepG2 (low) cells (.diamond.). Specific binding was determined by subtracting […]."}},
  "data": [
    {"molecule": "CC[C@H](C)C(=O)O[C@H]1C[C@@H](C)C=C2C=C[C@H](C)[C@H](CC[C@@H]3C[C@@H](O)CC(=O)O3)[C@H]21", "note": "[lovastatin]", "values": [
      {"measurement": "cholesterol concentration relative to that prior to the first gene transfer", "setting": "total serum cholesterol; rabbit #774, gene transfer followed by 10 mg per day for 10 weeks", "result": 40, "unit": "%"},
      {"measurement": "further reduction in the levels of cholesterol", "setting": "total serum cholesterol; rabbit #774 after gene transfer, 10 mg per day orally for 10 weeks", "result": 20, "unit": "%"}
    ]},
    {"molecule": "CFLEAIPMSIPPEVKFNKPFVFLIIHRD [C1315]", "values": [
      {"measurement": "Average % Fluorescent Cells", "setting": "SEC receptor [1]; HepG2(high)", "result": "20.4 ± 11.2", "unit": "%"},
      {"measurement": "Average % Fluorescent Cells", "setting": "SEC receptor [1]; HepG2(low)", "result": "1.8 ± 1.4", "unit": "%"},
      {"measurement": "Average % Fluorescent Cells", "setting": "SEC receptor [1]; HuH7", "result": "14.3 ± 4.0", "unit": "%"},
      {"measurement": "effect of excess free peptide on cell viability", "setting": "hepatoma cells", "result": "no effect on cell viability"}
    ]},
    {"molecule": "CSIPPEVKFNKPFVYLI [C105Y]", "values": [
      {"measurement": "binding by HuH7 cells relative to HepG2 (high), more", "setting": "SEC receptor [2]", "result": 1.5, "unit": "fold"},
      {"measurement": "specific binding by HepG2 (low) cells relative to HepG2 (high) cells, less", "setting": "SEC receptor [2]", "result": 7.5, "unit": "fold"},
      {"measurement": "specific binding by HepG2 (low) cells relative to HuH7 cells, less", "setting": "SEC receptor [2]", "result": 10, "unit": "fold"},
      {"measurement": "Kd", "setting": "SEC receptor [2]; HepG2 (high) cells, Scatchard analysis", "result": 50, "unit": "nM"},
      {"measurement": "Kd", "setting": "SEC receptor [2]; HepG2 (low) cells", "result": "~22.5", "unit": "nM"},
      {"measurement": "Kd", "setting": "SEC receptor [2]; HuH7 cells", "result": "~70", "unit": "nM"}
    ]}
  ]
}
